These results are taken from patent US20250230138A1, “COMPOUNDS HAVING A T-STRUCTURE FORMED BY AT LEAST FOUR CYCLES FOR USE IN THE TREATMENT OF CANCER AND OTHER INDICATIONS” (TheRas, Inc., priority 2022, published 2025).

The structures appear in SMILES notation. Where two headings read alike, the source gives them in different places.

The target of experiment [1] is Cys242 in human PIK3CA (157-299) (Homo sapiens (Human), UniProt P42336). Put plainly: Covalent modification assay using MALDI-TOF MS. The experiment is classed as biochemical. The note with it: 4 h reaction time point. The protocol:
Matrix-Assisted Laser Desorption Ionization-Time of Flight Mass Spectrometry (MALDI-TOF MS) analysis of covalent modification of Cys242 in human PIK3CA (157-299) was performed.
Reaction: 3.33 μM or 1 μM of PIK3CA (157-299) protein (produced in-house by Protein Expression Laboratory, FNLCR/Leidos Biomed) in 20 mM HEPES buffer containing 150 mM NaCl, 2 mM MgCl2, pH 7.3 was prepared freshly before assay. Twelve-μL aliquots of protein were dispensed onto low volume 384-well plate, then 470 nL DMSO and 30 nL of tested compounds from 10 mM DMSO stocks were added to appropriate wells using ECHO 555 acoustic liquid handler (Labcyte Inc.). For each reaction/assay, three blanks were prepared by mixing 12 μL of protein solution with 500 nL DMSO. The wells content was carefully mixed by aspiration, and then the plate was sealed by an adhesive cover, centrifuged at 931 g for 1 minute, and kept in the dark at room temperature until 15 min, 30 min, 2 h, or 4 h collections.
Targetpretreatment: Before each assay MALDI target (Bruker MPT 384 ground steel BC) was pre-treated by pipetting on each spot 0.75 μL of saturated sinapinic acid in acetonitrile (ACN).
Sample preparation: At collection time point, 2 μL of reaction mixtures were pipetted out into […] MALDI matrix solution (saturated solution of sinapinic acid in 1:1 ACN:water solution containing 0.15% trifluoroacetic acid (TFA)) deposited on 384 well polypropylene plate. The resulting solution was mixed by aspiration, centrifuged at 931 g for 1 minute, then 1.5 μL aliquots were dispensed on pre-treated MALDI target using Beckman Coulter Biomek FX^P 96/384-Span-8 Laboratory Automation Workstation. Finally, the MALDI target was dried under a mild vacuum to produce spots with a fine crystalline structure.
Measurements: MALDI-TOF measurements were performed on Bruker Daltonics rapifleX Tissuetyper TOF-TOF mass spectrometer using linear mode and mass ranging from 16.0 to 19.6 kDa. Detector gain was set to 0.64×(459 V), sample rate to 5 GS/s, real-time smoothing to medium (175 MHz), laser smart beam pattern was set to “Custom” single smartbeam beam scan with a scan range of 40 μm on both X and Y axis, and the laser frequency was 10000 Hz. Spectra were automatically collected using the custom AutoXecute method. Laser power was auto adjusted using fuzzy control. The peak selection range was set to be between 16.0 and 18.5 kDa. Peak evaluation uses a half-width parameter set to be smaller than 40 Da for processed spectrograms (centroid peak detection; smoothed by SavitzkyGolay algorithm using 7 m/z width and 2 cycles; baseline was subtracted using a median algorithm with flatness 1 and median level 0). Fuzzy control used Proteins/Oligonucleotides protocol with minimum half-width 1/10 times above threshold. Up to 40000 satisfactory shots were collected in 10000 short steps. Dynamic termination was implemented to finish data collection when the peak signal/noise ratio was reaching a value of 1000.
Spectra processing: Spectra were smoothed by SavitzkyGolay algorithm using 7 m/z width and three cycles. Centroid peak detection algorithm was used with signal to noise threshold set to 6, relative intensity threshold 3%, peak width 10 m/z, and median baseline subtraction using flatness of 1 and the median level of 0.1. Peak intensity and area under the peak were evaluated and recorded for all peaks between 16.0 and 19.5 kDa.
Calculation of percent modification: Percent modification was calculated as a ratio of peak height for protein modified by compound to the sum of the peak height of remaining protein plus peak height for protein modified by a compound. If multiple modifications were observed each was calculated as a ratio of peak height for given modification versus the sum of peak heights for all observed protein species.

Another experiment concerns pAKT in BT474 cells. Kind of experiment: Cell-based pAKT HTRF assay in BT474 cells. The note with it: BT474 cells, 4 hr incubation, read-out: pAKT inhibition IC50 in BT474 cells. The protocol:
On Day 1, cells were seeded into 96-well plates at 2.5×10^4 cells/well in complete growth media (DMEM, 10% FBS). On Day 2, cells were treated with compounds at 0.25% DMSO. The source plate was created with compounds diluted in media at 5-fold the final assay concentration. The compounds are run in a 9-point concentration curve starting at 3 μM, with a 3-fold dilution between concentrations. 20 μL was transferred onto the cell plates (final volume in wells was 100 μL). Plates were harvested after 4 hr incubation by aspirating media and adding kit-supplied 1× supplemented lysis buffer to all wells (75 μL per well). Plates were then placed on a plate shaker and incubated at 850 rpm for an additional 30 min. The antibody mixture solution was prepared by diluting aliquoted d2 and Eu Cryptate antibodies 1:20 in kit supplied detection buffer, then mixed the diluted antibodies solutions (1:1 v:v). 4 μL of this solution was then added to a 384-well detection plate (Perkin Elmer; 6008230). Samples were homogenized by pipetting up and down and then transferred (16 μL of cell lysates) from the 96-well cell culture plate to two wells of the HTRF 384-well detection plate containing the antibody solution. Plates were centrifuged (524 g for 1 min) and allowed to incubate between 4 and 24 h at room temperature. The maximum signal is reached after 4 h incubation time and remains stable over a period of 24 hours. Therefore, readings can be made between 4 and 24 h of incubation. Plates were centrifuged again (524 g for 1 m), and analyzed on the EnVision plate reader using the following settings: Excitation 320 nm, Bandwidth […]; Emission 615 nm, Bandwidth […], Gain 10000, Flashes 100, Lag 60 μs.

Where [2] appears, read: 3.33 μM protein target, 1:7.5 protein to compound ratio (compounds 1-852).
The mark [3] stands for this setting: 1 μM protein target, 1:5 protein to compound ratio (compounds 853-1279).

Chain of Cys242 in human PIK3CA (157-299) (P42336 157-299): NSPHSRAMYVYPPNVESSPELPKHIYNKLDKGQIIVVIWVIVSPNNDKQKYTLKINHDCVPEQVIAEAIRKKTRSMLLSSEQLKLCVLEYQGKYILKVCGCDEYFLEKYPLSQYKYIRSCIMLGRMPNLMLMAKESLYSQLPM

As a reminder, the IC50 is the point on the concentration scale where inhibition reaches its midpoint. In the case of `C=CC(=O)N1Cc2cc(-c3nc(-c4ccc5c(c4)CCN(C)C5)c4ccsc4c3-c3c(F)cc(F)cc3OC(C)C)nn2C[C@H]1C` [Compound 478, 1-((R)-2-((R)-7-(2,4-difluoro-6-isopropoxyphenyl)-4-(2-methyl-1,2,3,4-tetrahydroisoquinolin-6-yl)thieno[3,2-c]pyridin-6-yl)-6-methyl-6,7-dihydropyrazolo[1,5-a]pyrazin-5(4H)-yl)prop-2-en-1-one], the “% of modification” value in experiment [1] (setting [2]) is reported as “D (percent of modification <25%)”. Moreover, the IC50 in the experiment on pAKT in BT474 cells (Compounds 10-999) was 100 to 1000 nM. As to `C=CC(=O)N1CCn2nc(-c3nc(-c4cn(C)cn4)c4ccsc4c3-c3c(F)cc(F)cc3OCCOC)cc2[C@H]1C` [Compound 741], the “% of modification” value in experiment [1] (setting [2]) is given as “A (percent of modification of PIK3CA protein ≥75%)”. In addition, the IC50 with pAKT in BT474 cells (Compounds 10-999) is less than 100 nM.

Take `C=CC(=O)N1CC(n2cc(-c3nc(-c4ccc5c(c4)CNC5=O)c4ccsc4c3-c3ccc(F)cc3OC)cn2)C1` [Compound 282]: the “% of modification” value in experiment [1] (setting [2]) is given as “A (percent of modification of PIK3CA protein ≥75%)”. The IC50 in the experiment on pAKT in BT474 cells (Compounds 10-999) was less than 100 nM.

On to `C=CC(=O)N1CCc2nc(-c3nc(-c4ccc5nn(C)cc5c4)c4ccsc4c3-c3c(F)cc(F)cc3OCCOC)sc2C1` [Compound 427], for which the “% of modification” value in experiment [1] (setting [2]) is “A (percent of modification of PIK3CA protein ≥75%)”. Besides, the IC50 with pAKT in BT474 cells (Compounds 10-999) is less than 100 nM. Regarding `C=CC(=O)N1CCn2nc(-c3nc(N4CC5(CC(C(=O)NC)C5)C4)c4ccsc4c3-c3c(F)cc(F)cc3OCCOC)cc2[C@H]1C` [Compound 1012, 2-((S)-6-((R)-5-acryloyl-4-methyl-4,5,6,7-tetrahydropyrazolo[1,5-a]pyrazin-2-yl)-7-(2,4-difluoro-6-(2-methoxyethoxy)phenyl)thieno[3,2-c]pyridin-4-yl)-N-methyl-2-azaspiro[3.3]heptane-6-carboxamide], the “% of modification” value in experiment [1] (setting [3]) was “A (percent of modification of PIK3CA protein ≥75%)”. Besides, the IC50 in the experiment on pAKT in BT474 cells (Homo sapiens, BT-474, Compounds 1000-1279) is less than 100 nM. With `C=CC(=O)N1CCn2nc(-c3cc(-c4cnn(C)c4)cnc3-c3ccc(F)cc3OCCOC)cc2C1` [Compound 281, 1-[2-[2-[4-fluoro-2-(2-methoxyethoxy)phenyl]-5-(1-methylpyrazol-4-yl)-3-pyridyl]-6,7-dihydro-4H-pyrazolo[1,5-a]pyrazin-5-yl]prop-2-en-1-one], in experiment [1] (setting [2]), the “% of modification” value is reported as “C (25%≤percent of modification <50%)”. Also, in the experiment on pAKT in BT474 cells (Homo sapiens, BT-474, Compounds 10-999), the IC50 is greater than 3000 nM. In the case of `C=CC(=O)N1CCn2nc(-c3nc(-c4ccc(C5(C(=O)NC)CC5)cc4)c4ccsc4c3-c3c(F)cc(F)cc3OC)cc2[C@H]1C` (single isomer, unassigned) [Compound 1151], in experiment [1] (setting [3]), the “% of modification” value was “A (percent of modification of PIK3CA protein ≥75%)”. Also, in the experiment on pAKT in BT474 cells (Compounds 1000-1279), the IC50 lay within 100 to 1000 nM. Take `C=CC(=O)N1Cc2cc(-c3nc(-c4ccc5c(c4)CN(C)C5=O)c4ccsc4c3-c3c(F)cc(F)cc3OCCOC)nn2C[C@H]1C` [Compound 795]: the “% of modification” value in experiment [1] (setting [2]) is on record as “A (percent of modification of PIK3CA protein ≥75%)”. The IC50 in the experiment with pAKT in BT474 cells (Compounds 10-999) was less than 100 nM. The matching figures for `C=CC(=O)N1CCc2nc(-c3nc(-c4cnc5c(c4)CN(C)CC5)c4ccsc4c3-c3c(F)cc(F)cc3OCCOC)sc2C1` [Compound 365]: “A (percent of modification of PIK3CA protein ≥75%)” and less than 100 nM.

On to `C=CC(=O)N1CCCc2ccc(-c3nc(-c4ccc5c(c4)CCNC5)c4ccsc4c3-c3ccc(F)cc3OCCOC)cc21` [Compound 66], for which the “% of modification” value in experiment [1] (setting [2]) is on record as “D (percent of modification <25%)”. Same read-out and setting: the result for `C=CC(=O)N1CCc2ccc(-c3nc(-c4ccc5c(c4)CCNC5)c4ccsc4c3-c3ccc(F)cc3OCCOC)cc21` [Compound 65] reads “D (percent of modification <25%)”. With `CCC(=O)N1CCn2nc(-c3nc(-c4ccc5c(c4)CCNC5=O)c4ccsc4c3-c3ccc(F)cc3OC(C)C)cc2C1` [Compound 269], in the experiment on pAKT in BT474 cells (Compounds 10-999), the IC50 was in the range of 100 to 1000 nM. For `CC1c2cc(-c3nc(-c4ccc5c(cnn5C)c4)c4ccsc4c3-c3c(F)cc(F)cc3OCCO)nn2CCN1C(=O)C(O)CO` (stereo not shown) [Compound 1235], the IC50 with pAKT in BT474 cells (Compounds 1000-1279) is greater than 1000 nM. `C=CC(=O)N[C@H]1CCc2ccc(-c3nc(-c4ccc5c(c4)CCNC5)c4ccsc4c3-c3ccc(F)cc3OCCOC)cc21` [Compound 81]: the “% of modification” value in experiment [1] (setting [2]) is reported as “D (percent of modification <25%)”. For the molecule `COCCOc1cc(F)ccc1-c1c(-c2ccc(OC(C)C)cc2F)nc(-c2ccc3c(c2)CCNC3)c2ccsc12` [Compound 231], the IC50 in the experiment with pAKT in BT474 cells (Compounds 10-999) was greater than 3000 nM. On the same count and under the same terms, the result for `C=CC(=O)N1CCn2nc(-c3nc(-c4ccc5c(c4)CCN(C)C5)c4ccsc4c3-c3c(F)cc(F)cc3OC(C)C)cc2[C@H]1C` [Compound 543] reads less than 100 nM; that for `CCC(=O)N1CCn2nc(-c3nc(-c4ccc5c(c4)CCNC5=O)c4ccsc4c3-c3ccc(F)cc3OC(C)C)nc2C1` [Compound 260], greater than 3000 nM. The same measure, in the same setting: the result for `C=CC(=O)N1CCn2nc(-c3nc(-c4ccc5c(c4)CCN(C)C5)c4ccsc4c3-c3c(F)cc(F)cc3OC(C)C)cc2[C@H]1C` [Compound 542] reads 100 to 1000 nM. Regarding `CCC(=O)N1CCn2nc(-c3nc(-c4ccc5c(cnn5C)c4)c4ccsc4c3-c3c(F)cc(F)cc3OCCOC)cc2C1C` (stereo not shown) [Compound 1204], the IC50 in the experiment on pAKT in BT474 cells (Compounds 1000-1279) was greater than 1000 nM. With `C=CC(=O)N1CCn2nc(-c3nc(-c4ccc5c(c4)CCN(C)C5)c4ccsc4c3-c3c(F)cc(F)cc3OC(C)C)cc2[C@@H]1C` [Compound 540], the IC50 in the experiment with pAKT in BT474 cells (Compounds 10-999) was in the range of 1000 to 3000 nM. Regarding `CC1c2cc(-c3nc(-c4ccc5c(cnn5C)c4)c4ccsc4c3-c3c(F)cc(F)cc3OCCO)nn2CCN1C(=O)C(O)CO` (stereo not shown) [Compound 1236], the IC50 in the experiment with pAKT in BT474 cells (Compounds 1000-1279) is greater than 1000 nM.

With `CCC(=O)N1CC(n2cc(-c3nc(-c4ccc5c(c4)CCNC5)c4ccsc4c3-c3ccc(F)cc3OC)cn2)C1` [Compound 124], in the experiment with pAKT in BT474 cells (Compounds 10-999), the IC50 is greater than 3000 nM.

For the molecule `C=CC(=O)N1CCCC1Cn1cc(-c2nc(-c3ccc4c(c3)CCNC4)c3ccsc3c2-c2ccc(F)cc2OCCOC)cn1` (stereo not shown) [Compound 63], in experiment [1] (setting [2]), the “% of modification” value is listed as “A (percent of modification of PIK3CA protein ≥75%)”. Regarding `C=CC(=O)N1CCn2nc(-c3nc(-c4ccc5c(c4)CCN(C)C5)c4ccsc4c3-c3c(F)cc(F)cc3OC(C)C)cc2[C@@H]1C` [Compound 541], the IC50 with pAKT in BT474 cells (Compounds 10-999) is less than 100 nM. Consider `COCCOc1cc(F)cc(F)c1-c1c(-c2cc3n(n2)CCN(C(=O)C(O)CO)C3C)nc(-c2ccc3c(cnn3C)c2)c2ccsc12` (stereo not shown) [Compound 1241], for which the IC50 with pAKT in BT474 cells (Compounds 1000-1279) is greater than 1000 nM.
